A short description of series [1]: Integrated plasma activity for the 30-minute period after tracer injection. The class given is in vivo, human. The note with it: 30-minute period after injection. The source says: Integrated plasma activity
for the 30-minute time period after injection is also presented.

The next series has as its target T1, MAO A (Mus musculus, UniProt Q64133).
T1 sequence (Q64133 1-526): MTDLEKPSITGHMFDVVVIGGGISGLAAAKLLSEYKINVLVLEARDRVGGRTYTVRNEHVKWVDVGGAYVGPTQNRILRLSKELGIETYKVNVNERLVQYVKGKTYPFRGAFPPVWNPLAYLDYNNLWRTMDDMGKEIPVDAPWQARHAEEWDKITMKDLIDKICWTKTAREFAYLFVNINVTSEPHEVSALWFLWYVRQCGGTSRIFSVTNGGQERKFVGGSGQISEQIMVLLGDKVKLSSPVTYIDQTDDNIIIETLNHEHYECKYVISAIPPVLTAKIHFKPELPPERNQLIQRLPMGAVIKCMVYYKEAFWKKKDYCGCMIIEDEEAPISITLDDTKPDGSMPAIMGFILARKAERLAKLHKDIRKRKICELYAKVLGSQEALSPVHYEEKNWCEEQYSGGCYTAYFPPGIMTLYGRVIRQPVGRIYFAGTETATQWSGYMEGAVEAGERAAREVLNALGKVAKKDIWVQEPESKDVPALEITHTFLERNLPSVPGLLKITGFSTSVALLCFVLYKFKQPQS
The note with it: for Effect of cross pretreatment on tracer distribution: mice pretreated with unlabeled L-deprenyl 10 mg/kg i.p. one hour before tracer. The procedure: Organs were rapidly removed, blotted free of blood, placed in preweighed counting vials, and counted, along with injection standards, in a sodium iodide well counter.
For the determination of protein binding, freshly excised brains were minced in preweighed centrifuge tubes containing 2 ml 0.4% HClO4 […], weighed, counted, diluted with 1 ml HClO4 and 1 ml methanol, and homogenized by ultrasonication. After centrifugation and decantation, the pellets were resuspended in 3 ml methanol, sonicated, and recentrifuged. The combined supernatants and pellet were counted in a sodium iodide well counter. […] Because of the short half-life of C-11, corrections for the decay of the isotope were calculated to a standard time (end of cyclotron bombardment) for all data.
For pretreatment experiments, mice were given intraperitoneal injections of unlabeled clorgyline or L-deprenyl (10 mg/kg) one hour before the administration of the [^11 C]-tracer.

Another series deals with monoamine oxidase. As to the kind of experiment: PET in baboons, double injection with intervening high dose of unlabeled compound. The note with it: baboon pretreated with L-deprenyl, some brain regions. The class given is in vivo.
Setting [2] is: study 5, subject receiving phenelzine plus amphetamine.

From patent US4913891A, “Positron emitter labeled enzyme inhibitors” (The United States of America as represented by the United …, priority 1987, dated 1990) come the findings set out here.

Where two headings read alike, the source gives them in different places.

With `C#CCN([11CH3])CCCOc1ccc(Cl)cc1Cl` [[^11 C]clorgyline], the Integrated plasma activity in series [1] (study 1, normal volunteer) is listed as 2329 nCi ml min; in series [1] (study 2, normal volunteer) it was 3206 nCi ml min; in series [1] (study 3, normal volunteer), 3260 nCi ml min; in series [1] (study 4, normal volunteer), 3611 nCi ml min; in series [1] (setting [2]), 3965 nCi ml min. The “Effect of cross pretreatment on tracer distribution” value is recorded as “did not significantly alter from control” at MAO A and “no effect” on MAO A (listed as [^11 C]Clorgyline). The “Brain uptake compared with the other tracer” value on MAO A (mouse brain, control and pretreated mice) is “slight but consistently higher uptake than L-deprenyl”.
Turning to `C#CCN([11CH3])[C@H](C)Cc1ccccc1` [[^11 C]-L-deprenyl], the Integrated plasma activity in series [1] (study 1, normal volunteer) is 1818 nCi ml min; in series [1] (study 2, normal volunteer) it was 2295 nCi ml min; in series [1] (study 3, normal volunteer), 1018 nCi ml min; in series [1] (study 4, normal volunteer), 1618 nCi ml min; in series [1] (setting [2]), 2776 nCi ml min. For the same compound, the “Reduction of brain radioactivity due to tracer after pretreatment” value in the series with monoamine oxidase is at most 80%.
